The values below come from PubChem BioAssay AID2020 (NMMLSC, 2009).

Activity calls are given as the source filed them.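 How the source made its calls: active means EC50 at or below 30 µM together with a response span of at least a set limit; inactive means the rest.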

The target of the test is Cell division control protein 42 homolog (Homo sapiens) (UniProt P60953). As to the kind of experiment: activated Cdc42 mutant GTP binding inhibitors, SAR follow-up, biochemical, pyrazoline analogs, multiplex bead flow cytometry, Ki (AID 2020). The conditions noted are these: bead-based flow cytometry, Bodipy-FL-GTP binding; for Ki: measured here: Ki calculated from EC50.
Cell division control protein 42 homolog (Homo sapiens), sequence (P60953 whole entry, looked up, change not shown): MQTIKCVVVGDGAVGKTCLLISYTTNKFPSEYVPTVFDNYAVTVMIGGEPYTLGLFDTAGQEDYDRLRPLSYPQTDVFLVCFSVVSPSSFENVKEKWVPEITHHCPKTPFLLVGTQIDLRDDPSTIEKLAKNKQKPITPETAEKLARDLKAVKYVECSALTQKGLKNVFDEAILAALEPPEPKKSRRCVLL

Usually EC50 stands for the concentration that produces a half-maximal response. Regarding `COc1ccc(C2=NN(c3ccc(Cl)c(Cl)c3)C(c3ccc(OC)cc3)C2)cc1` (stereo unspecified), the EC50 was > 30 µM (inactive).
Still for that read-out and setting: under `O=[N+]([O-])c1cccc(C2CC(c3ccccc3)=NN2c2ccccc2)c1` (stereo unspecified) stands > 30 µM (inactive); under `CCc1ccc(C2=NN(c3ccc(S(N)(=O)=O)cc3)C(c3ccc(F)cc3)C2)cc1` (stereo unspecified), “inactive”; under `COc1ccc(C2CC(c3ccccc3C(F)(F)F)=NN2c2ccc(S(N)(=O)=O)cc2)cc1` (stereo unspecified), > 30 µM (inactive).
For `Cc1onc(-c2ccccc2)c1-c1ccc(S(N)(=O)=O)cc1`, the EC50 is > 30 µM (inactive).
As a reminder, the Ki is a measure of affinity in units of concentration, obtained from inhibition or displacement. For `COc1ccc(C2=NN(c3ccc(S(N)(=O)=O)cc3)C(c3ccc(OC)cc3)C2)cc1` (stereo unspecified), the EC50 entry is “inactive” and the Ki is 0.39 µM.
With `O=S(=O)(O)c1ccc(N2N=C(c3ccccc3)CC2c2ccccc2)cc1` (stereo unspecified), the EC50 is > 30 µM (inactive).
As to `COc1ccc(C2CC(c3ccc(F)cc3)=NN2c2ccc(S(N)(=O)=O)cc2)cc1` (stereo unspecified), the EC50 was 5.47 µM and the Ki was 0.85 µM.
For `COc1ccc(C2CC(c3ccccc3F)=NN2c2ccc(S(N)(=O)=O)cc2)cc1` (stereo unspecified), in that order: 3.57 µM and 0.55 µM.
In the case of `COc1ccc(C2CC(c3ccccc3)=NN2c2ccc(Cl)c(C(=O)O)c2)cc1` (stereo unspecified), the EC50 was > 30 µM (inactive).
On the same count and under the same terms, under `Cc1ccccc1N1N=C(c2ccccc2)CC1c1ccc(N(C)C)cc1` (stereo unspecified) stands > 30 µM (inactive).
Same read-out and setting: the same measure for `Cc1ccccc1N1N=C(c2ccccc2)CC1c1cccc([N+](=O)[O-])c1` (stereo unspecified): > 30 µM (inactive).
For `COc1ccc(C2CC(c3cccs3)=NN2c2ccc(S(N)(=O)=O)cc2)cc1` (stereo unspecified), the EC50 was 3.98 µM and the Ki is 0.62 µM.
As to `COc1ccc(C2CC(c3ccccc3)=NN2c2ccc([N+](=O)[O-])cc2)cc1` (stereo unspecified), the EC50 is > 30 µM (inactive).
Regarding `COc1ccc(C2CC(c3cccc(F)c3)=NN2c2ccc(S(N)(=O)=O)cc2)cc1` (stereo unspecified), the EC50 is 3.45 µM and the Ki is 0.53 µM.
Take `O=[N+]([O-])c1ccc(N2N=C(c3ccccc3)CC2c2ccccc2)cc1` (stereo unspecified): the EC50 was > 30 µM (inactive).
On the same count and under the same terms, under `O=S(=O)(c1ccc(N2N=C(c3ccc(Br)cc3)CC2c2ccccc2)cc1)C(F)F` (stereo unspecified) stands > 30 µM (inactive).
Same read-out and setting: under `FC(F)(F)c1cccc(N2N=C(c3ccc(Cl)cc3)CC2c2ccccc2Cl)c1` (stereo unspecified) stands > 30 µM (inactive); under `COc1ccc(C2CC(c3ccccc3)=NN2c2ccc(Cl)c(C(=O)O)c2)cc1OC` (stereo unspecified), > 30 µM (inactive).
With `COc1ccc(C2CC(c3ccccc3Cl)=NN2c2ccc(S(N)(=O)=O)cc2)cc1` (stereo unspecified), the EC50 was 2.88 µM and the Ki is 0.45 µM.
As to `Brc1ccc(N2N=C(c3ccccc3)CC2c2ccccc2)cc1` (stereo unspecified), the EC50 is > 30 µM (inactive).
Still for that read-out and setting: the same measure for `COc1ccc(C2CC(C)=NN2c2ccc(S(N)(=O)=O)cc2)cc1` (stereo unspecified): > 30 µM (inactive).
Still for that read-out and setting: under `COc1ccc(C2CC(c3cccnc3)=NN2c2ccc(S(N)(=O)=O)cc2)cc1` (stereo unspecified) stands > 30 µM (inactive).
Regarding `CN(C)c1ccc(C2CC(c3ccc(Cl)cc3)=NN2c2ccccc2)cc1` (stereo unspecified), the EC50 entry is “inactive” and the Ki was 4.67 µM.
`COc1ccc(C2CC(c3cccc(N(C)C)c3)=NN2c2ccc(S(N)(=O)=O)cc2)cc1` (stereo unspecified): the EC50 is > 30 µM (inactive).
In the case of `COc1ccc(C2CC(c3ccc(F)cc3)=NN2c2cccc(F)c2)cc1OC` (stereo unspecified), the EC50 result is “inactive” and the Ki was 4.88 µM.
Consider `COc1ccc(C2CC(c3ccncc3)=NN2c2ccc(S(N)(=O)=O)cc2)cc1` (stereo unspecified), for which the EC50 was > 30 µM (inactive).
For the compound `COc1ccc(C2=NN(c3ccccc3)C(c3ccc(Cl)cc3)C2)cc1` (stereo unspecified), the EC50 is > 30 µM (inactive).
As for `COc1ccccc1C1CC(c2ccccc2)=NN1c1ccccc1` (stereo unspecified), the EC50 entry was “inactive” and the Ki is 0.09 µM.
Take `O=C(O)c1ccc(N2N=C(c3ccccc3)CC2c2ccccc2)cc1` (stereo unspecified): the EC50 was > 30 µM (inactive).
Consider `COc1ccc(C2CC(c3cccc(Br)c3)=NN2c2ccc(S(N)(=O)=O)cc2)cc1` (stereo unspecified), for which the EC50 result is “inactive” and the Ki is 0.32 µM.
Regarding `COc1ccc(C2CC(C(C)(C)C)=NN2c2ccc(S(N)(=O)=O)cc2)cc1` (stereo unspecified), the EC50 is > 30 µM (inactive).
Still for that read-out and setting: under `COc1ccc(C2=NN(c3ccccc3)C(c3ccc(OC)c(OC)c3C(=O)O)C2)cc1` (stereo unspecified) stands > 30 µM (inactive).
`Cc1ccccc1C1CC(c2ccccc2)=NN1c1ccc(S(N)(=O)=O)cc1` (stereo unspecified): the EC50 was 13.6 µM and the Ki was 2.1 µM.
On to `O=[N+]([O-])c1ccc(N2N=C(c3ccccc3)CC2c2ccc(O)cc2)cc1` (stereo unspecified), for which the EC50 is > 30 µM (inactive).
On to `COc1ccc(C2CC(c3ccccc3)=NN2c2ccc(C(N)=O)cc2)cc1` (stereo unspecified), for which the EC50 was > 30 µM (inactive).
Regarding `COc1ccc(C2CC(c3cccc(C)c3)=NN2c2ccc(S(N)(=O)=O)cc2)cc1` (stereo unspecified), the EC50 is 4.05 µM and the Ki is 0.63 µM.
As to `COc1ccc(C2CC(c3ccccc3OC)=NN2c2ccc(S(N)(=O)=O)cc2)cc1` (stereo unspecified), the EC50 was 5.52 µM and the Ki was 0.85 µM.
On to `COc1ccc(C2CC(c3ccccc3)=NN2c2ccc(S(N)(=O)=O)cc2)cc1OC` (stereo unspecified), for which the EC50 is 6.05 µM and the Ki is 0.94 µM.
On to `COc1ccc(C2CC(c3ccc(F)cc3)=NN2c2ccccc2)cc1OC` (stereo unspecified), for which the EC50 was > 30 µM (inactive).
For the compound `NS(=O)(=O)c1ccc(N2N=C(c3ccccc3)CC2c2ccccc2Cl)cc1` (stereo unspecified), the EC50 is 7.4 µM and the Ki is 1.14 µM.
With `COc1ccc(C2CC(c3ccc(C(F)(F)F)cc3)=NN2c2ccc(S(N)(=O)=O)cc2)cc1` (stereo unspecified), the EC50 was > 30 µM (inactive).
The same measure, in the same setting: under `COc1ccccc1C1CC(c2ccccc2)=NN1c1ccc(S(N)(=O)=O)cc1` (stereo unspecified) stands > 30 µM (inactive).
With `NS(=O)(=O)c1ccc(N2N=C(c3ccccc3)CC2c2ccccc2Br)cc1` (stereo unspecified), the EC50 is > 30 µM (inactive).
Consider `COc1ccc(C2CC(c3cccc(Cl)c3)=NN2c2ccc(S(N)(=O)=O)cc2)cc1` (stereo unspecified), for which the EC50 is 2.08 µM and the Ki is 0.32 µM.
Take `COc1ccc(C2CC(c3ccc(F)cc3)=NN2c2cc(Cl)ccc2Cl)cc1` (stereo unspecified): the EC50 is > 30 µM (inactive).
The same measure, in the same setting: the same measure for `FC(F)(F)c1ccccc1C1CC(c2ccc(Br)cc2)=NN1c1ccccc1` (stereo unspecified): > 30 µM (inactive).
For the compound `COc1cccc(C2CC(c3ccccc3)=NN2c2ccc(S(N)(=O)=O)cc2)c1` (stereo unspecified), the EC50 is 4.32 µM and the Ki is 0.67 µM.
`COc1ccc(C2=NN(c3ccccc3)C(c3ccccc3C(F)(F)F)C2)cc1` (stereo unspecified): the EC50 entry is “inactive” and the Ki is 3.5 µM.
`O=[N+]([O-])c1cccc(C2CC(c3ccc(F)cc3)=NN2c2ccccc2)c1` (stereo unspecified): the EC50 is > 30 µM (inactive).
For `Clc1ccc(N2N=C(c3ccccc3)CC2c2ccccc2)cc1` (stereo unspecified), the EC50 was > 30 µM (inactive).
Turning to `CN(C)c1ccc(C2CC(c3ccccc3)=NN2c2ccc([N+](=O)[O-])cc2)cc1` (stereo unspecified), the EC50 is > 30 µM (inactive).
On to `NS(=O)(=O)c1ccc(N2N=C(c3ccccc3)CC2c2ccccc2)cc1` (stereo unspecified), for which the EC50 was 16.8 µM and the Ki was 2.6 µM.
As for `Cc1ccc(C2CC(c3ccccc3)=NN2c2ccc(S(N)(=O)=O)cc2)cc1` (stereo unspecified), the EC50 was 5.04 µM and the Ki was 0.78 µM.
The like results for `COc1ccc(-c2cc(-c3ccccc3)nn2-c2ccc(S(N)(=O)=O)cc2)cc1` were, in that order, “inactive” and 0.38 µM.
Take `COc1ccc(C2CC(c3cccc(C(F)(F)F)c3)=NN2c2ccc(S(N)(=O)=O)cc2)cc1` (stereo unspecified): the EC50 was > 30 µM (inactive).
As for `COc1ccc(C2CC(c3cccc(OC)c3)=NN2c2ccc(S(N)(=O)=O)cc2)cc1` (stereo unspecified), the EC50 is 1.59 µM and the Ki is 0.25 µM.
`COc1ccc(C2=NN(c3ccc(Cl)cc3)C(c3ccccc3F)C2)cc1` (stereo unspecified): the EC50 is > 30 µM (inactive).
On the same count and under the same terms, the same measure for `Cc1cccc(N2N=C(c3ccccc3)CC2c2ccccc2)c1` (stereo unspecified): > 30 µM (inactive).
`COc1ccc(C2CC(c3ccc(Br)cc3)=NN2c2ccc(S(N)(=O)=O)cc2)cc1` (stereo unspecified): the EC50 entry is “inactive” and the Ki is 0.44 µM.
Turning to `COc1ccc(C2CC(C3CCCCC3)=NN2c2ccc(S(N)(=O)=O)cc2)cc1` (stereo unspecified), the EC50 was > 30 µM (inactive).
For the compound `NS(=O)(=O)c1ccc(N2N=C(c3ccccc3)CC2c2ccc(Br)cc2)cc1` (stereo unspecified), the EC50 is 1.7 µM and the Ki was 0.26 µM.
As to `COc1ccc(C2CC(c3ccc(Br)cc3)=NN2c2ccccc2Cl)cc1` (stereo unspecified), the EC50 was > 30 µM (inactive).
The same measure, in the same setting: under `COc1ccc(C2=NN(c3ccccc3F)C(c3ccc(F)cc3)C2)cc1` (stereo unspecified) stands > 30 µM (inactive).
With `COc1ccc(C2=NN(c3cccc(F)c3)C(c3ccc(Cl)cc3)C2)cc1` (stereo unspecified), the EC50 result is “inactive” and the Ki is 4.86 µM.
For `COc1ccccc1N1N=C(c2ccccc2)CC1c1ccccc1` (stereo unspecified), the EC50 was > 30 µM (inactive).
On the same count and under the same terms, the same measure for `COc1ccc(C2=NN(c3cccc(F)c3)C(c3ccc(OC)cc3)C2)cc1` (stereo unspecified): > 30 µM (inactive).
For the compound `COc1ccc(C2CC(c3ccc(Cl)cc3)=NN2c2ccc(S(N)(=O)=O)cc2)cc1` (stereo unspecified), the EC50 is 4.05 µM and the Ki was 0.63 µM.
Take `CN(C)c1ccc(C2CC(c3ccccc3)=NN2c2ccccc2)cc1` (stereo unspecified): the EC50 result is “inactive” and the Ki was 0.01 µM.
With `COc1ccc(C2CC(c3ccccc3)=NN2c2cccc(S(N)(=O)=O)c2)cc1` (stereo unspecified), the EC50 entry was “inactive” and the Ki was 0.01 µM.
For `Cc1cccc(C2CC(c3ccccc3)=NN2c2ccc(S(N)(=O)=O)cc2)c1` (stereo unspecified), in that order: 5.3 µM and 0.82 µM.
Consider `NS(=O)(=O)c1ccc(N2N=C(c3ccccc3)CC2c2ccc(Cl)cc2)cc1` (stereo unspecified), for which the EC50 was 3.64 µM and the Ki was 0.56 µM.
In the case of `COc1ccc(C2CC(c3ccccc3)=NN2c2ccc(C(=O)O)cc2)cc1` (stereo unspecified), the EC50 was > 30 µM (inactive).
The same measure, in the same setting: under `Clc1cccc(N2N=C(c3ccccc3)CC2c2ccccc2)c1` (stereo unspecified) stands > 30 µM (inactive).
Take `COc1ccc(C2CC(c3ccsc3)=NN2c2ccc(S(N)(=O)=O)cc2)cc1` (stereo unspecified): the EC50 was 7.34 µM and the Ki was 1.14 µM.
